From EP3828160A1, “TREPROSTINIL DERIVATIVE COMPOUNDS AND METHODS OF USING SAME” (Corsair Pharma, Inc., priority 2014, dated 2016)

What was measured:
[1] = Human hepatocyte stability assay (Test 4); assay type: in vitro ADME; conditions: cryopreserved hepatocytes, 0.5 uM test compound, 37°C, up to 240 minutes, 0.5 million cells/mL in William's Medium E, read-out: Test 4 T1/2
Method: (§1) Four assays on compounds were carried out by the following methods with the results shown in Table I. • (Test 1) Human liver microsomal stability assay was conducted by incubating 0.5 uM test compounds at 37°C for up to 45 minutes in 50 mM of potassium phosphate buffer (pH 7.4) containing 0.5 mg of microsomal protein and 50 µL of NADPH generating system (7.8 mg of glucose 6-phosphate, 1.7 mg of NADPH and 6 U of glucose 6-phosphate dehydrogenase per mL in 2% w/v of sodium bicarbonate). At 0, 5, 15, 30 and 45 min., an aliquot was taken, quenched with internal standard containing stop solution. No co-factor controls at 45 minutes were also prepared. After incubation, the samples were analyzed by LC-MS/MS. Peak area ratios of analyte to internal standard were used to calculate the intrinsic clearance. The intrinsic clearance (CLint) was determined from the first order elimination constant by non-linear regression. Formation of the active drug Compound A over the time course was also monitored by LC-MS/MS analysis. • (Test 2) Human plasma stability assay was conducted by incubating 0.5 uM test compounds at 37°C for up to 120 minutes in heparinated human plasma. At 0, 5, 15, 30, 60 and 120 […] min., an aliquot was taken, quenched with internal standard containing stop solution. After incubation, the samples were analyzed by LC-MS/MS. Peak area ratios of analyte to internal standard were used to calculate the half-life. Formation of the active drug Compound A over the time course was also monitored by LC-MS/MS analysis. • (Test 3) Human skin homogenate stability assay was conducted in a similar way as the human liver microsomal stability assay, by incubating 0.5 uM test compounds at 37°C for up to 45 minutes in 50 mM of potassium phosphate buffer (pH 7.4) containing 0.5 mg of human skin homogenate protein and 50 µL of NADPH generating system (7.8 mg of glucose 6-phosphate, 1.7 mg of NADPH and 6 U of glucose 6-phosphate dehydrogenase per mL in 2% w/v of sodium bicarbonate). At 0, 5, 15, 30 and 45 min., an aliquot was taken, quenched with internal standard containing stop solution. No co-factor controls at 45 minutes were also prepared. After incubation, the samples were analyzed by LC-MS/MS. Peak area ratios of analyte to internal standard were used to calculate the intrinsic clearance. The intrinsic clearance (CLint) was determined from the first order elimination constant by non-linear regression. Formation of the active drug Compound A over the time course was also monitored by LC-MS/MS analysis. • (Test 4) Human hepatocyte stability assay was conducted by incubating 0.5 uM test compound at 37°C for up to 240 minutes. Cryopreserved human hepatocytes were obtained from Celsis IVT (Baltimore, Maryland). Cells were thawed according to vendor's instructions and were suspended in William's Medium E to 0.5 million cells/mL. Test compounds were spiked into the cell suspension to initiate the reactions. At 0, 10,30,60, 120 and 240 min., an aliquot was taken, quenched with internal standard containing stop solution. After incubation, the samples were analyzed by LC-MS/MS. Peak area ratios of analyte to internal standard were used to calculate the intrinsic clearance. The intrinsic clearance (CLint) was determined from the first order elimination constant by non-linear regression. Formation of the active drug Compound A over the time course was also monitored by LC-MS/MS analysis.

[2] = Human liver microsomal stability assay (Test 1); assay type: in vitro ADME; conditions: liver microsomes, 0.5 uM test compound, 37°C, up to 45 minutes, 0.5 mg microsomal protein, NADPH generating system, pH 7.4, read-out: Test 1 T1/2
Method: as §1

[3] = Human plasma stability assay (Test 2); assay type: in vitro ADME; conditions: 0.5 uM test compound, 37°C, up to 120 minutes, heparinated human plasma, read-out: Test 2 T1/2
Method: as §1

[4] = Human skin homogenate stability assay (Test 3); assay type: in vitro ADME; conditions: 0.5 uM test compound, 37°C, up to 45 minutes, 0.5 mg human skin homogenate protein, NADPH generating system, pH 7.4, read-out: Test 3 T1/2
Method: as §1

[5] = treprostinil as the free acid, cited from earlier work

Row | SMILES | half-life at 0.5 uM [1] | half-life at 0.5 uM [2] | half-life at 0.5 uM [3] | half-life at 0.5 uM [4] | absolute oral bioavailability ([5]; oral) | systemic half life ([5]; due to significant metabolism)
1 | CCCCCC(O)CCC1C(O)CC2Cc3c(cccc3OCC(=O)NCC3CC3)CC21 (stereo not drawn) [Compound 2, N-Cyclopropylmethyl-2-[2-hydroxy-1-(3-hydroxy-octyl)-2,3,3a,4,9,9a-hexahydro-1H-cyclopenta[b]naphthalen-5-yloxy]-acetamide] | 31 to 60 min | < 15 min | > 60 min | – | – | –
2 | CCCCCC(O)CCC1C(O)CC2Cc3c(cccc3OCC(=O)NCCO)CC21 (stereo not drawn) [Compound 7, N-(2-Hydroxy-ethyl)-2-[2-hydroxy-1-(3-hydroxy-octyl)-2,3,3a,4,9,9a-hexahydro-1H-cyclopenta[b]naphthalen-5-yloxy]-acetamide] | 15 to 30 min | 15 to 30 min | > 60 min | – | – | –
3 | CCCCCC(O)CCC1C(O)CC2Cc3c(cccc3OCC(=O)N(C)CC(=O)OC)CC21 (stereo not drawn) [Compound 13, ({2-[2-Hydroxy-1-(3-hydroxy-octyl)-2,3,3a,4,9,9a-hexahydro-1H-cyclopenta[b]naphthalen-5-yloxy]-acetyl}-methyl-amino)-acetic acid methyl ester] | < 15 min | < 15 min | > 60 min | – | – | –
4 | CCCCCC(O)CCC1C(O)CC2Cc3c(cccc3OCC(=O)NCC(F)(F)F)CC21 (stereo not drawn) [Compound 14, 2-[2-Hydroxy-1-(3-hydroxy-octyl)-2,3,3a,4,9,9a-hexahydro-1H-cyclopenta[b]naphthalen-5-yloxy]-N-(2,2,2-trifluoro-ethyl)-acetamide] | < 15 min | < 15 min | > 60 min | > 60 min | – | –
5 | CCCCCC(O)CCC1C(OC(=O)OCC)CC2Cc3c(cccc3OCC(=O)OC)CC21 (stereo not drawn) [Compound 25, [2-Ethoxycarbonyloxy-1-(3-hydroxy-octyl)-2,3,3a,4,9,9a-hexahydro-1H-cyclopenta[b]naphthalen-5-yloxy]-acetic acid methyl ester] | – | < 15 min | > 60 min | 31 to 60 min | – | –
6 | CCCCC[C@H](O)CC[C@@H]1[C@H]2Cc3cccc4c3C[C@H]2C[C@H]1OC(=O)CO4 [Compound 57, Treprostinil 2-hydroxy lactone] | > 60 min | > 60 min | > 60 min | – | – | –
7 | CCCCC[C@H](O)CC[C@@H]1[C@H]2Cc3cccc(OCC(=O)O)c3C[C@H]2C[C@H]1O [treprostinil] | – | – | – | – | less than 10% | very short
